# Like-named read-outs stand apart in the source and are kept apart here. Marks after values point to notes of the source that are not given here.
# Assays:
# [1] = tested on: lung cancer A549 transplanted mouse model; test: In vivo tumor growth inhibition, intravenous administration; parameters: species or system Kunming mice; details: 20 mg/kg
# Method: The lung cancer A549 transplanted mouse model was employed. DDO-6101 and antitumor drug 5-fluorouracil (5-FU) were also tested for comparison.
# Kunming mice with body weights of 18–22 g were transplanted with lung cancer A549 cells according to protocols of transplant tumor research, as previously reported. Twenty-four hours after tumor transplantation, animals were weighed and randomly divided into five groups. All test drugs were given […] 24 h after tumor transplantation. The treated groups were intravenously injected or administered per os different doses of test compounds, respectively. The negative control group received 0.9% normal saline. Treatments were conducted at a frequency of one dose per two days for the intravenous group or one dose per day for the per os group for two or one week, respectively. All animals were sacrificed 24 h after the final treatment. All data are presented as mean ± SD and the statistical significance was evaluated by t-test.
# [2] = tested on: human lung carcinoma A549 cell line; test: MTT antiproliferative assay, A549; type: cell-based; details: Homo sapiens, A549; MTT, 72 h
# Method: (§1) The antiproliferative activity of the ten synthesized caged xanthone derivatives, as well as the lead compound DDO-6101 and GA were assessed with the 3-(4,5-dimethylthiazol-2-yl)-2,5-diphenyltetrazolium bromide (MTT) assay, as previously reported, against six human cancer cell lines, including the human lung carcinoma A549 cell line, taxol-resistant A549 cell line (A549/taxol), cisplatin-resistant A549 cell line (A549/cisplatin), the human hepatocellular carcinoma HepG2 cell line, the human colon carcinoma HCT-116 cell line, and the human glioblastoma U251 cell line. DDO-6101 and GA were used as positive controls for the in vitro assay.
# (§2) Cancer cell lines were obtained from Cell Bank of Shanghai, Chinese Academy of Sciences. Cells were cultured in 90% RPMI 1640 medium (GIBCO, Invitrogen Corporation, New York, NY, USA) supplemented with 10% fetal bovine serum (Sijiqing Biotechnology Co., Hangzhou, China), 100 U/mL benzyl penicillin, and 100 μg/mL streptomycin in a humidified environment with 5% CO2 at 37 °C. All the tested compounds were dissolved in DMSO at a concentration of 0.01 mol/L and stored at −4 °C.
# (§3) The inhibition of tumour cell growth was measured by a modified tetrazolium (MTT) salt assay. Cells were cultured in a 96-well plate and treated with culture medium alone or different concentrations of the compounds. The cells were incubated for 72 h, and then the MTT assay reagent was added. After a 4 h incubation, the formazan product was quantitated at 570 nm. The IC50 values (the concentrations that gave rise to 50% inhibition of cell viability) were calculated using GraphPad Prism 6 using a variable slope (four parameters).
# [3] = tested on: taxol-resistant A549 cell line (A549/taxol); test: MTT antiproliferative assay, A549/taxol; type: cell-based; details: Homo sapiens
# Method: as §1, §2, §3
# [4] = tested on: cisplatin-resistant A549 cell line (A549/cisplatin); test: MTT antiproliferative assay, A549/cisplatin; type: cell-based; details: Homo sapiens, 72 h
# Method: as §1, §2, §3
# [5] = tested on: human hepatocellular carcinoma HepG2 cell line; test: MTT antiproliferative assay, HepG2; type: cell-based; details: 72 h
# Method: as §1, §2, §3
# [6] = tested on: human colon carcinoma HCT-116 cell line; test: MTT antiproliferative assay, HCT116; type: cell-based; details: 72 h
# Method: as §1, §2, §3
# U2OS cells = test: MTT antiproliferative assay, U2OS; type: cell-based; details: Homo sapiens, 72 h
# [7] = logD by potentiometric titration (Gemini Profiler); type: physicochemical; details: measured on Gemini Profiler instrument (pION); for logD: pH 7.4, read-out: Log D 7.4
# [8] = Aqueous solubility by HPLC; details: thermodynamic from solid
# Source text: (§4) In parallel with the in vitro antitumor activity testing, the physicochemical properties of the target caged xanthone derivatives were theoretically predicted and experimentally determined in an effort to identify potential druglike compounds prior to the time-consuming and costly development and optimization of derivatives that may ultimately fail in efficacy experiments in vivo. The partition coefficient (logD) was experimentally determined on a Gemini Profiler instrument (pION, Inc., Woburn, MA, USA) by a potentiometric titration method. The polar surface area (PSA), as well as intestinal absorption level, were theoretically predicted by Accelrys Discovery Studio 4.0 (BIOVIA, San Diego, CA, USA) using the ADMET protocol. […] The permeability coefficient (Pe) was determined using a standard parallel artificial membrane permeability assay (PAMPA) on a PAMPA Explorer instrument (pION).
# (§5) A HPLC system with an ultraviolet (UV) detector was used to detect the solubility of the compounds. The optimal wavelength was 290 nm. Ethanol/water (85:15) was an efficient eluent at a flow rate of 0.5 mL/min. The compounds were stirred in deionized water overnight to maximize the retention of the compounds in solution. Then, the solutions were filtered and the supernatant was used as a fluid sample for HPLC detection. The permeability (Pe) of the compounds was tested with the help of a standard PAMPA (pION). PAMPA was performed on a PAMPA Explorer instrument (pION) with the PAMPA Explorer command software (Version 3.7.4.1). The compounds were diluted to 10 mM with the system solution buffer (pH 7.4). Then, 150 μL of the diluted compound solution was transferred to a UV plate, and the UV spectrum was collected and used as a reference. Then, paint the membrane with 5 μL of gastrointestinal tract (GIT) lipid. The acceptor chamber was filled with 200 μL of acceptor solution buffer, and the donor chamber was filled with 200 μL of diluted compound solution. The PAMPA sandwich was assembled and left at 25 °C for 4 h. The UV spectra (240–500 nm) from the donor and the acceptor were collected. The permeability coefficient was calculated with the PAMPA Explorer Command software (Version 3.7.4.1) based on the area under the curve (AUC) of the reference plate, the donor plate, and the acceptor plate. The permeability coefficient of the compound was tested for four times, and the data are shown as the average values.
# [9] = Parallel artificial membrane permeability assay (PAMPA)
# Source text: as §4
# as §5, with “The PAMPA sandwich was assembled and left at 25 °C for 4 h.” left out
# [10] = A549/Taxol, MTT, 72 h, read-out: IC50 A549/Taxol
IC50 [2],"IC50 [3, 10]",IC50 [4],IC50 [5],IC50 [6],IC50 (U2OS cells),logD [7],solubility ([8]; deionized water),"Papp at 4 h, 10 mM ([9]; pH 5)","Papp at 4 h, 10 mM ([9]; pH 6.2)","Papp at 4 h, 10 mM ([9]; pH 7.4)",melting point,SMILES,further results
–,–,–,–,–,–,–,–,–,–,–,–,"O=c1[nH]cc(F)c(=O)[nH]1 [Compound 5-FU, 5-fluorouracil, reference compound]",Body Weight Pre-Dose ([1]; pre-dose): 20.25 ± 1.27 g; Body Weight After-Dose ([1]; two weeks): 24.43 ± 2.62 g; Inhibitory Rate ([1]; two weeks): 64.71%; Weight of Tumor ([1]; two weeks): 0.48 ± 0.17 ^b g
1950 ± 400 nM,1220 ± 210 nM,1480 ± 100 nM,2120 ± 410 nM,1640 ± 260 nM,2220 ± 90 nM,2.1,1120 µM,27.9 ± 3.3 ×10⁻⁶ cm/s,58.8 ± 2.1 ×10⁻⁶ cm/s,91.4 ± 9.8 ×10⁻⁶ cm/s,156 to 158 °C,CC(C)=CCC12OC(C)(C)C3CC(C=C4C(=O)c5c(OCc6cn(CCN(C)C)nn6)cccc5OC431)C2=O (stereo not drawn) [Compound 8a],–
2620 ± 200 nM,1300 ± 80 nM,1660 ± 110 nM,1360 ± 160 nM,2270 ± 50 nM,2730 ± 50 nM,1.8,1540 µM,16.3 ± 1.2 ×10⁻⁶ cm/s,41.7 ± 3.2 ×10⁻⁶ cm/s,76.1 ± 6.4 ×10⁻⁶ cm/s,133 to 136 °C,CC(C)=CCC12OC(C)(C)C3CC(C=C4C(=O)c5c(OCc6cn(CCCN(C)C)nn6)cccc5OC431)C2=O (stereo not drawn) [Compound 8b],–
2580 ± 390 nM,1290 ± 70 nM,1340 ± 90 nM,1190 ± 310 nM,980 ± 310 nM,2010 ± 200 nM,2.2,1400 µM,42.3 ± 1.5 ×10⁻⁶ cm/s,75.4 ± 6.9 ×10⁻⁶ cm/s,91.9 ± 6 ×10⁻⁶ cm/s,168 to 170 °C,CC(C)=CCC12OC(C)(C)C3CC(C=C4C(=O)c5c(OCc6cn(CCN7CCCC7)nn6)cccc5OC431)C2=O (stereo not drawn) [Compound 8c],–
2620 ± 40 nM,1700 ± 120 nM,890 ± 240 nM,4480 ± 290 nM,1020 ± 30 nM,3050 ± 70 nM,1.6,1920 µM,15.4 ± 2.1 ×10⁻⁶ cm/s,52.8 ± 1.6 ×10⁻⁶ cm/s,66.4 ± 8.4 ×10⁻⁶ cm/s,144 to 146 °C,CC(C)=CCC12OC(C)(C)C3CC(C=C4C(=O)c5c(OCc6cn(CCCN7CCCC7)nn6)cccc5OC431)C2=O (stereo not drawn) [Compound 8d],–
2170 ± 120 nM,2030 ± 110 nM,1290 ± 480 nM,4850 ± 390 nM,2140 ± 180 nM,4660 ± 30 nM,2.9,560 µM,47.8 ± 4.7 ×10⁻⁶ cm/s,57.2 ± 1.4 ×10⁻⁶ cm/s,78.2 ± 8.8 ×10⁻⁶ cm/s,173 to 176 °C,CC(C)=CCC12OC(C)(C)C3CC(C=C4C(=O)c5c(OCc6cn(CCN7CCCCC7)nn6)cccc5OC431)C2=O (stereo not drawn) [Compound 8e],Pe range ([9]; range under different pH from 5.0 to 7.4): 47.0–78.2 × 10^–6 cm/s
1070 ± 280 nM,1290 ± 80 nM,1320 ± 120 nM,6300 ± 480 nM,1390 ± 40 nM,2070 ± 110 nM,2.7,880 µM,34.9 ± 3.6 ×10⁻⁶ cm/s,55.1 ± 0.8 ×10⁻⁶ cm/s,68.7 ± 5.3 ×10⁻⁶ cm/s,125 to 128 °C,CC(C)=CCC12OC(C)(C)C3CC(C=C4C(=O)c5c(OCc6cn(CCCN7CCCCC7)nn6)cccc5OC431)C2=O (stereo not drawn) [Compound 8f],–
1030 ± 60 nM,550 ± 80 nM,360 ± 40 nM,3070 ± 130 nM,950 ± 120 nM,730 ± 70 nM,0.9,3700 µM,40 ± 0.1 ×10⁻⁶ cm/s,58 ± 6.1 ×10⁻⁶ cm/s,72.6 ± 0.1 ×10⁻⁶ cm/s,143 to 145 °C,CC(C)=CCC12OC(C)(C)C3CC(C=C4C(=O)c5c(OCc6cn(CCCN7CCOCC7)nn6)cccc5OC431)C2=O (stereo not drawn) [Compound 8h],"IC50 ([3]; range over both resistant A549 lines and both compounds, read-out: IC50 values, taxol-resistant and cisplatin-resistant A549 cell lines): 330 to 550 nM"
3330 ± 490 nM,2120 ± 90 nM,780 ± 80 nM,5350 ± 230 nM,6150 ± 860 nM,9510 ± 1520 nM,1,3220 µM,11.3 ± 0.6 ×10⁻⁶ cm/s,41.5 ± 1.3 ×10⁻⁶ cm/s,67.5 ± 4.2 ×10⁻⁶ cm/s,171 to 175 °C,CC(C)=CCC12OC(C)(C)C3CC(C=C4C(=O)c5c(OCc6cn(CCN7CCN(C)CC7)nn6)cccc5OC431)C2=O (stereo not drawn) [Compound 8i],–
–,–,–,–,–,–,–,–,–,–,–,–,"CC(C)NCC(O)COc1cccc2ccccc12 (stereo not drawn) [Propranolol, reference compound]","Pe pH=7.4 ([9]; pH 7.4): 127.5±15.8 10-6 cm/s; Pe pH=7.4 ([9]; pH 7.4, listed as propranolol): 127.5 10-6 cm/s"

SMILES,IC50 [2],"IC50 [3, 10]",IC50 [4],IC50 [5],IC50 [6],IC50 (U2OS cells),logD [7],solubility ([8]; deionized water),"Papp at 4 h, 10 mM ([9]; pH 5)","Papp at 4 h, 10 mM ([9]; pH 6.2)","Papp at 4 h, 10 mM ([9]; pH 7.4)",melting point,further results
"CC(C)=CCC[C@]1(C)C=Cc2c(O)c3c(c(CC=C(C)C)c2O1)O[C@]12C(=C[C@@H]4C[C@H]1C(C)(C)O[C@@]2(C/C=C(/C)C(=O)O)C4=O)C3=O [GA, Gambogic acid, reference compound]",–,290 ± 40 nM,2500 ± 60 nM,–,340 ± 80 nM,4670 ± 110 nM,–,–,–,–,–,–,"Log D 7.4 [7]: 3.6; solubility ([8]; water): < 5 µM; Pe range ([9]; PAMPA, 4 h, 10 mM): 0.9–2.3 × 10^–6 cm/s; Papp at 4 h, 10 mM ([9]; PAMPA, pH 5): 0.9 ± 0.5 ×10⁻⁶ cm/s; Pe pH=6.2 ([9]; pH 6.2): 1.8±0.2 10-6 cm/s; Pe pH=7.4 ([9]; pH 7.4): 2.3±0.3 10-6 cm/s"

# From article PMC6150271, “‘Click Chemistry’ Synthesis of Novel Natural Product-Like Caged Xanthones Bearing a 1,2,3-Triazole Moiety with Improved Druglike Properties as Orally Active Antitumor Agents” (Molecules : A Journal of Synthetic Chemistry and Natural …, 2017)
